Measured values from patent publication US7863478B2, “UV filters” (Merck Patent GmbH, priority 2004, dated 2011).

Experiments:
[1] = UV absorption (UV-VIS spectra in 2-propanol, 1 mg/100 ml); format: physicochemical; parameters: UV absorbance at λmax (1 mg/100 ml): unit not given here; settings: for UVB (280-320 nm) max. abs / UVB max. at λ [nm] / UVA (400-320 nm) max. abs / UVA max. at λ [nm]: solvent 2-Propanol, c 1 mg/100 ml; for UV-VIS λmax / UV absorbance at λmax (1 mg/100 ml): 1 mg/100 ml; for UV absorbance at λmax (1 mg/100 ml): value in brackets after λmax in the synthesis example
Description: FIG. 1: UV absorption spectra of 1-hydroxy-3-[(E)-3-(4-methoxyphenyl)-2-propenoyloxy]-2-oxopropane (Example 1a) and 1-hydroxy-3-(2-cyano-3,3-diphenylacryloyloxy)-2-oxopropane (Example 1b) (in each case measured in 2-propanol at a concentration of 1 mg/100 ml)
FIG. 2: UV absorption spectra of 3-[4-(3-hydroxy-2-oxopropoxymethyl)benzylidene]-4,7,7-trimethylbicyclo[2.2.1]heptan-2-one (Example 9), N-(2,3-dihydroxypropyl)-(E)-3-(4-methoxyphenyl)acrylamide (Example 10a) and N-(2,3-dihydroxypropyl)-N-methyl-(E)-3-(4-methoxyphenyl)acrylamide (Example 10b) (in each case measured in 2-propanol at a concentration of 1 mg/100 ml).

SMILES | UVB (280-320 nm) max. abs [1] | UVB max. at λ [nm] [1] [nm] | further results
COc1ccc(/C=C/C(=O)N(C)CC(O)CO)cc1 (stereo not drawn) [drawing 96] | 0.715 | 292 | –
CN(C)c1ccc(C(=O)NCC(O)CO)cc1 (stereo not drawn) [drawing 82] | 0.947 | 301.0 | –
COc1ccc(/C=C/C(=O)N(C)CC(O)CO)cc1 (stereo not drawn) [Example 10b, N-(2,3-dihydroxypropyl)-N-methyl-(E)-3-(4-methoxyphenyl)acrylamide] | – | – | UV-VIS λmax [1]: 301.0 nm; UV absorbance at λmax (1 mg/100 ml) [1]: 0.934; melting point: 81 to 83 °C
CN(C)c1ccc(C(=O)OCC(O)CO)cc1 (stereo not drawn) [Example 5, 2,3-Dihydroxypropyl 4-dimethylaminobenzoate] | – | – | UV-VIS λmax [1]: 310.0 nm; UV absorbance at λmax (1 mg/100 ml) [1]: 1.01
COc1ccc(/C=C/C(=O)OCC2COC(C)(C)O2)cc1 (stereo not drawn) | 0.796 | 306.0 | –
N#CC(C(=O)OCC(=O)COC(=O)C(C#N)=C(c1ccccc1)c1ccccc1)=C(c1ccccc1)c1ccccc1 [drawing 78, 1,3-Bis-(2-cyano-3,3-diphenylacryloyloxy)-2-oxopropane] | 0.031 | 304.0 | –
COc1ccc(/C=C/C(=O)OCC(=O)CO)cc1 [drawing 74] | 0.893 | 311.33 | –
COc1ccc(/C=C/C(=O)NCC(O)CO)cc1 (stereo not drawn) [drawing 75] | 0.936 | 292.00 | –
O=C(c1ccccc1)c1ccc(OCC(O)CO)cc1O (stereo not drawn) | 0.537 | 287.9 | UVA (400-320 nm) max. abs [1]: 0.363; UVA max. at λ [nm] [1]: 327.5 nm
CC12CCC(C(=O)/C1=C\c1ccc(CNCC(O)CO)cc1)C2(C)C (stereo not drawn) | 0.692 | 298.0 | –
COc1ccc(/C=C/C(=O)NCC(O)CO)cc1 (stereo not drawn) [drawing 94] | 0.914 | 289 | –
CC12CCC(C(=O)/C1=C\c1ccc(COCC(=O)CO)cc1)C2(C)C (stereo not drawn) [3-[4-(3-hydroxy-2-oxopropoxymethyl)benzylidene]-4,7,7-trimethylbicyclo[2.2.1]heptan-2-one] | 0.874 | 296 | –
CN(C)c1ccc(C(=O)NCC(=O)CO)cc1 [Example 22, N-(3-hydroxy-2-oxopropyl)-4-dimethylaminobenzamide] | – | – | UV-VIS λmax [1]: 298.0 nm; UV absorbance at λmax (1 mg/100 ml) [1]: 0.575
CN(C)c1ccc(C(=O)OCC(O)CO[Si](C)(C)C(C)(C)C)cc1 (stereo not drawn) [Example 6, 3-(tert-Butyldimethylsilyloxy)-2-hydroxypropyl 4-dimethylaminobenzoate] | – | – | UV-VIS λmax [1]: 310.0 nm; UV absorbance at λmax (1 mg/100 ml) [1]: 1.01
CN(C)c1ccc(C(=O)OCC2COC(C)(C)O2)cc1 (stereo not drawn) [Example 4, 4-(4-Dimethylaminophenylcarbonyloxymethyl)-2,2-dimethyl-1,3-dioxolane] | – | – | UV-VIS λmax [1]: 310.0 nm; UV absorbance at λmax (1 mg/100 ml) [1]: 0.86
CCCCC(CC)COc1ccc(/C=C/C(=O)NCC(=O)CO)cc1 (stereo not drawn) [drawing 90, N-(3-hydroxy-2-oxopropyl)-(E)-3-[4-(2-ethylhexyloxyphenyl)]acrylamide] | 0.706 | 307.5 | –

SMILES | UVB (280-320 nm) max. abs [1] | UVB max. at λ [nm] [1] [nm] | further results
CCCCC(CC)COc1ccc(/C=C/C(=O)NCC(O)CO)cc1 (stereo not drawn) [Example 10c, N-(2,3-dihydroxypropyl)-(E)-[4-(2-ethylhexyloxyphenyl)]acrylamide] | – | – | UV-VIS λmax [1]: 307.0 nm; UV absorbance at λmax (1 mg/100 ml) [1]: 0.688
CCCCC(CC)COc1ccc(/C=C/C(=O)NCC(O)CO)cc1 (stereo not drawn) [drawing 89, N-(2,3-dihydroxypropyl)-(E)-[4-(2-ethylhexyloxyphenyl)]acrylamide] | 0.688 | 307.0 | –
CC1(C)OCC(COc2ccc(C(=O)c3ccccc3)c(O)c2)O1 (stereo not drawn) | 0.473 | 286.1 | UVA (400-320 nm) max. abs [1]: 0.312; UVA max. at λ [nm] [1]: 328.3 nm
COc1ccc(/C=C/C(=O)OCC(O)CO)cc1 (stereo not drawn) | 0.881 | 302.0 | –
CN(C)c1ccc(C(=O)NCC(=O)CO[Si](C)(C)C(C)(C)C)cc1 [drawing 86, N-[3-(tert-butyldimethylsilyloxy)-2-oxopropyl]-4-dimethylaminobenzamide] | 0.713 | 312.0 | –
COc1ccc(/C=C/C(=O)OCC(=O)COC(=O)/C=C/c2ccc(OC)cc2)cc1 [drawing 73] | 0.107 | 300.67 | –
N#CC(C(=O)OCC(=O)CO)=C(c1ccccc1)c1ccccc1 [drawing 77, 1-Hydroxy-3-(2-cyano-3,3-diphenylacryloyloxy)-2-oxopropane] | 0.375 | 303.0 | –
CN(C)c1ccc(C(=O)NCC(=O)CO[Si](C)(C)C(C)(C)C)cc1 [Example 19, N-[3-(tert-butyldimethylsilyloxy)-2-oxopropyl]-4-dimethylaminobenzamide] | – | – | UV-VIS λmax [1]: 312.0 nm; UV absorbance at λmax (1 mg/100 ml) [1]: 0.713
COc1ccc(/C=C/C(=O)NCC(=O)CO)cc1 [drawing 81, N-(3-hydroxy-2-oxopropyl)-(E)-3-(4-methoxyphenyl)acrylamide] | 0.941 | 294.0 | –
COC(CO)(COCc1ccc(/C=C2\C(=O)C3CCC2(C)C3(C)C)cc1)OC (stereo not drawn) [3-[4-(3-hydroxy-2,2-dimethoxypropoxymethyl)benzylidene]-4,7,7-trimethylbicyclo[2.2.1]heptan-2-one] | 0.615 | 298.0 | –
CN(Cc1ccc(/C=C2\C(=O)C3CCC2(C)C3(C)C)cc1)CC(O)CO[Si](C)(C)C(C)(C)C (stereo not drawn) [3-[4-({[3-(tert-butyldimethylsilyloxy)-2-hydroxypropyl]-methylamino}methyl)benzylidene]-4,7,7-trimethylbicyclo[2.2.1]heptan-2-one] | 0.545 | 297 | –
CN(Cc1ccc(/C=C2\C(=O)C3CCC2(C)C3(C)C)cc1)CC(O)CO (stereo not drawn) [3-(4-{[(2,3-Dihydroxypropyl)methylamino]methyl}benzylidene)-4,7,7-trimethylbicyclo[2.2.1]heptan-2-one] | 0.711 | 296 | –
CN(C)c1ccc(C(=O)OCC(=O)CO)cc1 [drawing 83, 3-Hydroxy-2-oxopropyl 4-dimethylaminobenzoate] | 1.213 | 311.0 | –
CN(C)c1ccc(C(=O)NCC(O)CO[Si](C)(C)C(C)(C)C)cc1 (stereo not drawn) [drawing 84, N-[3-(tert-butyldimethylsilyloxy)-2-hydroxypropyl]-4-dimethylaminobenzamide] | 0.64 | 301.0 | –
CN(C)c1ccc(C(=O)NCC(=O)CO)cc1 [drawing 85, N-(3-hydroxy-2-oxopropyl)-4-dimethylaminobenzamide] | 0.575 | 298.0 | –
COc1ccc(/C=C/C(=O)NCC(O)CO[Si](C)(C)C(C)(C)C)cc1 (stereo not drawn) [drawing 93] | 0.694 | 289 | –
